From patent US7981883B2, “Substituted spiro-compounds and the use thereof for producing medicaments” (Gruenenthal GmbH, priority 2005, dated 2011)

What was measured:
Assay type in all cases: cell-based
VR1 (human) [1] = target: T1, VR1 (human) (Homo sapiens, UniProt Q8NER1); experiment: Functional FLIPR Ca2+ inflow assay on VR1 (human), CHO K1 cells stably transfected with the VR1 gene; conditions: against capsaicin (CAP)
T1 construct: expressed in transfected cells; host or cells: CHO K1 cells (ECACC)
T1 sequence (Q8NER1 whole entry): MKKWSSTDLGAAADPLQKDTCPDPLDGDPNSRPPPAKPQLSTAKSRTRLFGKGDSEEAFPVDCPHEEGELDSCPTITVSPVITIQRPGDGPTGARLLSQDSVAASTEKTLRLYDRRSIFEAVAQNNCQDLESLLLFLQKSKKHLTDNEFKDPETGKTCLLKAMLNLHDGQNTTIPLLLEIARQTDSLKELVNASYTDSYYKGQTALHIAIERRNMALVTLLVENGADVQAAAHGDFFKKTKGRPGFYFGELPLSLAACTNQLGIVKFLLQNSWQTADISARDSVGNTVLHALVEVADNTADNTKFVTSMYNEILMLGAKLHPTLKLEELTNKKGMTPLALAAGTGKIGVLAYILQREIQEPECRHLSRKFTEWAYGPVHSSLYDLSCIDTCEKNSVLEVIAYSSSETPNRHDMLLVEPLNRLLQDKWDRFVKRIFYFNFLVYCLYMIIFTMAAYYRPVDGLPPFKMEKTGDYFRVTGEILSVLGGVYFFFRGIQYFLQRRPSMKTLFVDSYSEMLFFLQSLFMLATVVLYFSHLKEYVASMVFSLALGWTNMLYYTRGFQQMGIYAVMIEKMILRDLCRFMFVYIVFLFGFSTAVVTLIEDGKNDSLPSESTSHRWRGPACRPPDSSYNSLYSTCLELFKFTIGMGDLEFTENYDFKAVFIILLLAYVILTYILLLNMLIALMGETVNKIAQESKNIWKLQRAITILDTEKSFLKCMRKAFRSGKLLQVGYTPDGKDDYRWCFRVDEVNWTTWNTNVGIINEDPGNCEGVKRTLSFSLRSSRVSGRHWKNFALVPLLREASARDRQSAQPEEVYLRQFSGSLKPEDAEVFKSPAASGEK

VR1 (human) [2] = target: T1, VR1 (human); experiment: as above; conditions: test compound 10 μM; for inhibition at 10 µM / activation at 10 µM: CHO-K1; for inhibition at 10 µM / VR1 (human) (% inhibition compared to 10 μM CP): then 100 nM capsaicin after 5 min, relative to maximum inhibition with 10 μM capsaicin; for inhibition at 10 µM: read-out: VR1 (human) (% inhibition compared to 10 μM CP); for activation at 10 µM / VR1 (human) (% stimulation compared to 10 μM CP): Ca2+ signal relative to 10 μM capsaicin (CP); for activation at 10 µM: read-out: VR1 (human) (% stimulation compared to 10 μM CP)
Source text: II. Functional Testing Carried Out on the Vanilloid Receptor (VR1)
The agonistic or antagonistic effect of the substances to be tested can also be determined on the vanilloid receptor (VR1) using the following assay. According to this assay, the Ca^2+ inflow is quantified through the channel using a Ca^2+-sensitive dye (type Fluo-4, Molecular Probes Europe BV, Leiden, Netherlands) in a fluorescent imaging plate reader (FLIPR, Molecular Devices, Sunnyvale, USA).
Chinese hamster ovary cells (CHO K1 cells, European Collection of Cell Cultures (ECACC) United Kingdom) were stably transfected with the VR1 gene. For functional testing, these cells were plated out on poly-D-lysine-coated black 96 well plates having a clear base (BD Biosciences, Heidelberg, Germany) at a density of 25,000 cells/well. The cells were incubated overnight at 37° C. and 5% CO2 in a culture medium (Ham's F12 nutrient mixture, 10% by volume of FCS (foetal calf serum), 18 μg/ml L-proline). The next day the cells were incubated with Fluo-4 (Fluo-4 2 μM, 0.01% by volume of Pluronic F127, Molecular Probes in HBSS (Hank's buffered saline solution), Gibco Invitrogen GmbH, Karlsruhe, Germany) for 30 minutes at 37° C. Subsequently, the plates were washed three times with HBSS buffer and after further incubation for 15 minutes at room temperature used for Ca^2+ measurement in a FLIPR assay. The Ca^2+-dependent fluorescence was measured before and after the addition of the substances to be tested (λex wavelength=488 nm, λem=540 nm). Quantification was carried out by measuring the highest fluorescence intensity (FC, Fluorescence Counts) over time.
The FLIPR protocol consists of 2 substance additions. First the compounds to be tested (10 μM) were pipetted onto the cells and the Ca^2+ inflow was compared with the control (capsaicin 10 μM) (% activation based on the Ca^2+ signal after the addition of 10 μM capsaicin). After 5 minutes' incubation, 100 nM of capsaicin were administered and the Ca^2+ inflow was also determined.
Desensitising agonists and antagonists led to suppression of the Ca^2+ inflow. The % inhibition was calculated compared to the maximum achievable inhibition with 10 μM of capsaicin.

VR1 (rat) [3] = target: T2, VR1 (rat) (Rattus norvegicus, UniProt O35433); experiment: Functional FLIPR Ca2+ inflow assay on rat-species vanilloid receptor 1 in rat dorsal root ganglia cells; conditions: test compound 10 μM; for inhibition at 10 µM / VR1 (rat) (% inhibition compared to 10 μM CP): then 100 nM capsaicin after 5 min, relative to maximum inhibition with 10 μM capsaicin; for inhibition at 10 µM: read-out: VR1 (rat) (% inhibition compared to 10 μM CP); for activation at 10 µM / VR1 (rat) (% stimulation compared to 10 μM CP): Ca2+ signal relative to 10 μM capsaicin (CP); for activation at 10 µM: read-out: VR1 (rat) (% stimulation compared to 10 μM CP)
T2 construct: from tissue; host or cells: primary cells dissociated from rat dorsal root ganglia
T2 sequence (O35433 whole entry): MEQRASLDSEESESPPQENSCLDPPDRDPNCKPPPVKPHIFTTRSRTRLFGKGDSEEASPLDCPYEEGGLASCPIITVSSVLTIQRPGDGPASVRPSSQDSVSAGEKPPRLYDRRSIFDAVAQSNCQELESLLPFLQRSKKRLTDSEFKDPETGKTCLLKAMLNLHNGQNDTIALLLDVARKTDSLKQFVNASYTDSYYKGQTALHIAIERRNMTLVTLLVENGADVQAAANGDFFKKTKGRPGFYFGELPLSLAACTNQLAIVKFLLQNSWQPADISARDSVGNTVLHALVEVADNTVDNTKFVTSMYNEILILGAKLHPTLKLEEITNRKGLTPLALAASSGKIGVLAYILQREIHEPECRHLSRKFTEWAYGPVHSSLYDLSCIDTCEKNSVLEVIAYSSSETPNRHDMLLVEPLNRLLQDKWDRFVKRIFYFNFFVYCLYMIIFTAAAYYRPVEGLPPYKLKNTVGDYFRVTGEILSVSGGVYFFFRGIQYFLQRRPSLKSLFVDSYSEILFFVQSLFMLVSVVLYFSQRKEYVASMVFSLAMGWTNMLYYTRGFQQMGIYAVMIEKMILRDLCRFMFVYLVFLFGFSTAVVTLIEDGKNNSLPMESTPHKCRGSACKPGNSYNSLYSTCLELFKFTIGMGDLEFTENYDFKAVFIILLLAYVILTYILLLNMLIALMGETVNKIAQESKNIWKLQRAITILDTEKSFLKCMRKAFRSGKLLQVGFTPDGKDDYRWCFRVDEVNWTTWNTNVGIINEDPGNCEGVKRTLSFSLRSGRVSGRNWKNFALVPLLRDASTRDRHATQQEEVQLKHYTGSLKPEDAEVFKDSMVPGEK
Source text: I. Functional Testing Carried Out on the Vanilloid Receptor 1 (VR1/TRPV1 Receptor)
The agonistic or antagonistic effect of the substances to be tested can be determined on the rat-species vanilloid receptor 1 (VR1/TRPV1) using the following assay. According to this assay, the Ca^2+ inflow is quantified through the receptor channel using a Ca^2+-sensitive dye (type Fluo-4, Molecular Probes Europe BV, Leiden, Netherlands) in a fluorescent imaging plate reader (FLIPR, Molecular Devices, Sunnyvale, USA).
Complete medium: 50 mL HAMS F12 nutrient mixture (Gibco Invitrogen GmbH, Karlsruhe, Germany) with
10% by volume of FCS (foetal calf serum, Gibco Invitrogen GmbH, Karlsruhe, Germany, […]);
2 mM L-glutamine (Sigma, Munich, Germany);
1% by weight of AA solution (antibiotic/antimyotic solution, PAA, Pasching, Austria) and 25 ng/ml NGF medium (2.5 S, Gibco Invitrogen GmbH, Karlsruhe, Germany)
Cell culture plate: Poly-D-lysine-coated, black 96 well plates having a clear base (96 well black/clear plate, BD Biosciences, Heidelberg, Germany) were additionally coated with laminin (Gibco Invitrogen GmbH, Karlsruhe, Germany), the laminin being diluted with PBS (Ca—Mg-free PBS, Gibco Invitrogen GmbH, Karlsruhe, Germany) to a concentration of 100 μg/mL. Aliquots having a laminin concentration of 100 μg/mL were removed and stored at −20° C. The aliquots were diluted with PBS in a ratio of 1:10 to 10 μg/mL laminin and in each case 50 μL of the solution were pipetted into a recess in the cell culture plate. The cell culture plates were incubated for at least two hours at 37° C., the excess solution was removed by suction-filtration and the recesses were each washed twice with PBS. The coated cell culture plates were stored with excess PBS which was not removed until just before the feeding of the cells.
The vertebral column was removed from decapitated rats and placed immediately into cold HBSS buffer (Hank's buffered saline solution, Gibco Invitrogen GmbH, Karlsruhe, Germany), i.e. buffer located in an ice bath, mixed with 1% by volume (percent by volume) of an AA solution (antibiotic/antimyotic solution, PAA, Pasching, Austria). The vertebral column was cut longitudinally and removed together with fasciae from the vertebral canal. Subsequently, the dorsal root ganglia (DRG) were removed and again stored in cold HBSS buffer mixed with 1% by volume of an AA solution. The DRG, from which all blood remnants and spinal nerves had been removed, were transferred in each case to 500 μL of cold type 2 collagenase (PAA, Pasching, Austria) and incubated for 35 minutes at 37° C. After the addition of 2.5% by volume of trypsin (PAA, Pasching, Austria), incubation was continued for 10 minutes at 37° C. After complete incubation, the enzyme solution was carefully pipetted off and 500 μL of complete medium were added to each of the remaining DRG. The DRG were in each case suspended several times, drawn through cannulae No. 1, No. 12 and No. 16 using a syringe and transferred to a 50 mL Falcon tube which was filled up to 15 mL with complete medium. The contents of each Falcon tube was in each case filtered through a 70 μm Falcon filter element and centrifuged for 10 minutes at 1,200 rpm and room temperature. The resulting pellet was in each case taken up in 250 μL of complete medium and the number of cells determined.
The number of cells in the suspension was set to 3×10^5 per mL and 150 μL of this suspension were in each case introduced into a recess in the cell culture plates coated as described hereinbefore. In the incubator the plates were left for two to three days at 37° C., 5% by volume of CO2 and 95% relative humidity. […]

VR1 (rat) [4] = target: T2, VR1 (rat); experiment: as above; conditions: against capsaicin (CAP)

IC50 (VR1 (human) [1]) [nM]	Ki (VR1 (human) [1]) [nM]	inhibition at 10 µM (VR1 (human) [2]) [%]	activation at 10 µM (VR1 (human) [2]) [%]	inhibition at 10 µM (VR1 (rat) [3]) [%]	activation at 10 µM (VR1 (rat) [3]) [%]	IC50 (VR1 (rat) [4]) [nM]	Ki (VR1 (rat) [4]) [nM]	VR1 (human) (% inhibition compared to 10 μM CP) (VR1 (human) [2]) [%]	VR1 (human) (% stimulation compared to 10 μM CP) (VR1 (human) [2]) [%]	VR1 (rat) (% inhibition compared to 10 μM CP) (VR1 (rat) [3]) [%]	VR1 (rat) (% stimulation compared to 10 μM CP) (VR1 (rat) [3]) [%]	Compound
1240	1990	92.8	-0.05	105	0.23	126	79.7					CC(C)(C)[C@H]1CC[C@@]2(CC1)CC(C(=O)NCc1ccc(NS(C)(=O)=O)c(F)c1)=NO2 [Example 7, cis-8-tert-butyl-1-oxa-2-azaspiro[4.5]dec-2-ene-3-carboxylic acid-3-fluoro-4-methanesulphonylaminobenzylamide]
3340	4860					1550	894	61.74	0.41	91.46	1.05	CC(C)(C)[C@H]1CC[C@@]2(CC1)CC(C(=O)N1CCN(c3ncccc3C(F)(F)F)CC1)=NO2 [Example 9, cis-(8-tert-butyl-1-oxa-2-azaspiro[4.5]dec-2-en-3-yl)-[4-(3-trifluoromethylpyridin-2-yl)piperazin-1-yl]methanone]
								54.21	23.79	69.46	55.21	CC(C)(C)C1CCC2(CC1)CC(C(=O)NCc1ccncc1)=NO2 (stereo not drawn) [Example 23, trans-8-tert-butyl-1-oxa-2-azaspiro[4.5]dec-2-ene-3-carboxylic acid (pyridin-4-ylmethyl)amide]
								83.01	91.72	97.79	87.96	CC(C)(C)[C@H]1CC[C@@]2(CC1)CC(C(=O)NCc1ccncc1)=NO2 [Example 24, cis-8-tert-butyl-1-oxa-2-azaspiro[4.5]dec-2-ene-3-carboxylic acid (pyridin-4-ylmethyl)amide]
		56.5	0.16	98.3	1.04							CC(C)(C)[C@H]1CC[C@]2(CC1)CC(C(=O)NCc1ccc(NS(C)(=O)=O)c(F)c1)=NO2 [Example 25, trans-8-tert-butyl-1-oxa-2-azaspiro[4.5]dec-2-ene-3-carboxylic acid-3-fluoro-4-methanesulphonylaminobenzylamide]
		64	15	97	60	545	63.7					CC(C)(C)c1ccc(NC(=O)C2CCC3(CC2)CC(c2ccccc2)=NO3)cc1 (centres unmarked) [Example 50, 3-phenyl-1-oxa-2-azaspiro[4.5]dec-2-ene-8-carboxylic acid-(4-tert-butylphenyl)amide]
								25	17	91	73	CC(C)(C)c1ccc(NC(=O)[C@H]2CC[C@@]3(CC2)CC(c2ccccc2)=NO3)cc1 [Example 51, 3-phenyl-1-oxa-2-azaspiro[4.5]dec-2-ene-8-carboxylic acid-cis-(4-tert-butylphenyl)amide]
		54	53	101	87							COc1cccc(C2=NOC3(CCC(C(=O)Nc4ccc(C(C)(C)C)cc4)CC3)C2)c1 (centres unmarked) [Example 66, N-(4-tert-butylphenyl)-3-(3-methoxyphenyl)-1-oxa-2-azaspiro[4.5]dec-2-ene-8-carboxamide]
2870	2050	42	35	103	48	1220	341					CCC(C)(C)C1CCC2(CC1)CC(C(=O)NCc1ccc(NS(C)(=O)=O)c(F)c1)=NO2 (centres unmarked) [Example 80, N-(3-fluoro-4-(methylsulphonamido)benzyl)-8-tert-pentyl-1-oxa-2-azaspiro[4.5]dec-2-ene-3-carboxamide]
		31	33	103	61							CC(C)(C)c1ccc(NC(=O)C2CCC3(CC2)CC(C(=O)N2CCN(c4ncccc4Cl)CC2)=NO3)cc1 (centres unmarked) [Example 84, N-(4-tert-butylphenyl)-3-(4-(3-chloropyridin-2-yl)piperazin-1-carbonyl)-1-oxa-2-azaspiro[4.5]dec-2-ene-8-carboxamide]
		34	36	100	43							CC(C)(C)C1CCC2(CC1)CC(C(=O)Nc1ccc(NS(C)(=O)=O)c(F)c1)=NO2 (centres unmarked) [Example 90, 8-tert-butyl-N-(3-fluoro-4-(methylsulphonamido)phenyl)-1-oxa-2-azaspiro[4.5]dec-2-ene-3-carboxamide]
								67	27	107	46	((5R,8R)-8-tert-butyl-1-oxa-2-azaspiro[4.5]dec-2-en-3-yl)(4-(3-chloropyridin-2-yl)-2,6-dimethylpiperazin-1-yl)methanone [Example 58]
